# Source: patent publication US10941157B2, “Pesticidal compositions and uses thereof” (Gilead Apollo, LLC, priority 2015, dated 2021)
# How the values were obtained:
# Format in all cases: cell-based
# Botrtyis cinerea (Bc) = assay: In vitro pathogen growth inhibition assay, Bc; details: 48 h, ≥90% inhibition; 48 hours vs 2% DMSO control; read-out: Compound Concentration (ppm) sufficient for ≥90% inhibition of growth, Bc
# Method: (§1) A growth inhibition assay was conducted to determine the ability of compounds to control the growth of fungal pathogens, such as Botrtyis cinerea (Bc), Collectotrichum graminicola (Cg), Diplodia maydis (Dm), Fusarium moniliforme (Fm), Fusarium virguliforme (Fv), Phytophthora capsici (Pc), Rhizoctonia solani (Rs), and Septoria tritici (St). The compounds listed in Table 1 were each dissolved in DMSO at 2.5 mg/ml to produce compound stock solutions (“stocks”). […] Negative controls on each plate included 2% DMSO, water, and a blank (media+2% DMSO). Fungal spores were isolated from previously sub-cultured plates of Botrtyis cinerea (Bc), Collectotrichum graminicola (Cg), Diplodia maydis (Dm), Fusarium moniliforme (Fm), Fusarium virguliforme (Fv), Phytophthora capsici (Pc), and Septoria tritici (St). The isolated spores were diluted to individual concentrations with a 17% V8 liquid media. For Rhizoctonia solani (Rs), 1.5 mm mycelial plugs were used in place of spores and ¼ Potato Dextrose Broth (PDB) was used for dilution. The spore concentrations and plug sizes were based on growth curves generated at 48 hours for each pathogen. In a second 96-well plate, the spores or mycelial plugs, media, diluted compound solutions, and controls were combined. Once the compound was added, a true final concentration of compound in each well was measured by an OD600 reading, which adjusted for any compound precipitation that might have occurred in the well. Plate readings were repeated at both 24 and 48 hours. The blank negative control was used as a background subtraction. Additional visual ratings were performed at both 24 and 48 hours for checking on precipitation and confirming efficacy. […] Both tables list the concentration of each compound that was sufficient to ≥90% inhibition of growth for each of the fungal pathogens listed above. In addition, some of compounds were tested in a yeast growth inhibition assay for Saccharomyces cerevisiae (Sc). Table 2 lists the concentration of the tested compound that was sufficient to ≥75% inhibition of Saccharomyces cerevisiae (Sc).
# Septoria tritici (St) = assay: In vitro pathogen growth inhibition assay, St; details: Zymoseptoria tritici, 48 h, ≥90% inhibition; 48 hours vs 2% DMSO control; read-out: Compound Concentration (ppm) sufficient for ≥90% inhibition of growth, St
# Method: as §1
# [1] = tested on: Fusarium virguliforme (Fv); assay: In vitro pathogen growth inhibition assay, Fv; details: ≥90% inhibition, 48 hours vs 2% DMSO control, read-out: Compound Concentration (ppm) sufficient for ≥90% inhibition of growth, Fv
# Method: as §1
# Diplodia maydis (Dm) = assay: In vitro pathogen growth inhibition assay, Dm; details: Stenocarpella maydis, 48 h, ≥90% inhibition; 48 hours vs 2% DMSO control; read-out: Compound Concentration (ppm) sufficient for ≥90% inhibition of growth, Dm
# Method: as §1
# [2] = tested on: Fusarium moniliforme (Fm); assay: In vitro pathogen growth inhibition assay, Fm; details: Fusarium verticillioides; ≥90% inhibition; 48 hours vs 2% DMSO control; read-out: Compound Concentration (ppm) sufficient for ≥90% inhibition of growth, Fm
# Method: as §1
# Rhizoctonia solani (Rs) = assay: In vitro pathogen growth inhibition assay, Rs (mycelial plugs); details: Rhizoctonia solani, 48 h, ≥90% inhibition; mycelial plugs; 48 hours vs 2% DMSO control; read-out: Compound Concentration (ppm) sufficient for ≥90% inhibition of growth, Rs
# Method: as §1
# [3] = tested on: Collectotrichum graminicola (Cg); assay: In vitro pathogen growth inhibition assay, Cg; details: 48 h, ≥90% inhibition; 48 hours vs 2% DMSO control; read-out: Compound Concentration (ppm) sufficient for ≥90% inhibition of growth, Cg
# Method: as §1
# [4] = tested on: Phytophthora capsici (Pc); assay: In vitro pathogen growth inhibition assay, Pc; details: 48 h, ≥90% inhibition, 48 hours vs 2% DMSO control, read-out: Compound Concentration (ppm) sufficient for ≥90% inhibition of growth, Pc
# Method: as §1
IC90 (Botrtyis cinerea (Bc)) [µg/mL],IC90 (Septoria tritici (St)) [µg/mL],IC90 [1] [µg/mL],IC90 (Diplodia maydis (Dm)) [µg/mL],IC90 [2] [µg/mL],IC90 (Rhizoctonia solani (Rs)) [µg/mL],IC90 [3] [µg/mL],IC90 [4] [µg/mL],SMILES
0.08,10,≥ 0.08,0.4,0.08,0.4,0.4,> 50,COc1ccc(F)cc1[C@H](Cn1c(=O)n(CC(=O)N2CCCC2)c(=O)c2c(C)c(-n3nccn3)sc21)OC(C)C [Compound I-059]
0.4,> 50,0.4,0.4,0.08,≥ 2,> 50,> 50,COc1ccc(F)cc1[C@H](Cn1c(=O)n(CC(=O)NC(C)C)c(=O)c2c(C)c(-n3nccn3)sc21)OC(C)C [Compound I-060]
0.4,> 50,0.4,0.4,0.08,0.4,0.08,> 50,COc1ccc(F)cc1[C@H](Cn1c(=O)n([C@H](C)C(=O)NC(C)C)c(=O)c2c(C)c(-n3nccn3)sc21)OC(C)C [Compound I-061]
0.4,50,0.4,1.2,0.08,2,0.4,50,COc1ccc(F)cc1[C@H](Cn1c(=O)n(C(C)C(=O)N2CCCC2)c(=O)c2c(C)c(-n3cccn3)sc21)OC(C)C (stereo partly shown) [Compound I-062]
0.4,≥ 50,0.4,≥ 0.4,0.08,2,0.4,> 50,COc1ccc(F)cc1[C@H](Cn1c(=O)n([C@@H](C)C(=O)N2CCCC2)c(=O)c2c(C)c(-n3cccn3)sc21)OC(C)C [Compound I-063]
2,≥ 2,0.4,0.4,0.08,≥ 0.08,0.4,≥ 2,COc1ccc(F)cc1[C@H](Cn1c(=O)n(C(C)(C)C(=O)NC(C)C)c(=O)c2c(C)c(-n3nccn3)sc21)OC[C@@H](C)O [Compound I-065]
≥ 0.4,≥ 10,0.4,≥ 0.4,0.08,≥ 0.4,≥ 0.4,50,COc1ccc(F)cc1[C@H](Cn1c(=O)n(C(C)(C)C(=O)NC(C)C)c(=O)c2c(C)c(-n3nccn3)sc21)OC[C@H](C)O [Compound I-066]
0.4,≥ 2,0.4,0.08,0.08,0.4,0.08,> 50,COc1ccc(F)cc1[C@H](Cn1c(=O)n(C(C)(C)C(=O)N2CC=CC2)c(=O)c2c(C)c(-n3nccn3)sc21)OC(C)C [Compound I-067]
0.4,≥ 50,0.4,≥ 0.08,0.08,0.4,0.4,> 50,COCCOc1ccc(F)cc1[C@H](Cn1c(=O)n(C(C)(C)C(=O)NC(C)C)c(=O)c2c(C)c(-n3nccn3)sc21)OC(C)C [Compound I-068]
0.4,≥ 50,0.4,0.4,0.08,≥ 0.4,0.4,> 50,Cc1c(-n2nccn2)sc2c1c(=O)n(C(C)(C)C(=O)NC(C)C)c(=O)n2C[C@H](OC(C)C)c1cc(F)ccc1OCC1COC1 [Compound I-069]
0.4,≥ 10,0.08,0.4,0.08,2,2,> 50,Cc1c(-n2nccn2)sc2c1c(=O)n(C(C)(C)C(=O)NC(C)C)c(=O)n2C[C@H](OC(C)C)c1cc(F)ccc1OCC#N [Compound I-070]
